Assay results taken from US6039963A, “Ceramide compounds, process for their preparation and use” (L'Oreal, priority 1995, dated 2000).

Tests used:
[1] = imperceptible water loss (IWL), evaporimeter (Servomed) on delipidized stratum corneum
Description: This measurement is made using an evaporimeter (Servomed) which quantitatively determines water evaporation, that is to say diffusional water transport, from a sample of previously delipidized stratum corneum which forms a stopper in a cylindrical capsule containing water, the entire assembly being placed in a chamber at controlled temperature and relative humidity.
Sensors allow the partial vapor pressure of water to be measured at two points located at different distances from the sample.
The partial vapor pressure of water is thus determined between the two points, and thus the rate of evaporation in accordance with Fick's law.
A comparative test was performed of the effects on the IWL of a solution containing the compound of Example 2 or 4 in tetrahydrofuran (THF) relative to a solution containing, in place of the compound according to the invention, either the pure isomer (D-ribo form) corresponding to the compound of Example 4 (compound A), or the compound of Example 1 of the European patent application published under the No. 0,500,437 filed by the Applicant (compound B).

[2] = coefficient of friction of the hair (smoothness), neutral hair, 1% in THF; settings: for coefficient of friction of the hair, R → T / coefficient of friction of the hair, T → R: neutral hair, 1% in THF; for coefficient of friction of the hair, R → T: root to tip; for coefficient of friction of the hair, T → R: tip to root
Experimental: (§1) A comparative test was performed on the effects on the smoothness of the hair of a solution containing 1% of the compound of Example 4 in tetrahydrofuran (THF), relative to a control consisting of THF, or to a solution containing, in place of the compound according to the invention, either the pure isomer (D-ribo form) corresponding to the compound of Example 4 (compound A) or the compound of Example 1 of the European patent application published under the No. 0,500,437 owned by the present assignee (compound B).
(§2) This test determines the coefficient of friction of the hair by measuring the force to apply to a control mass in order to make it slide at constant speed on two hairs stretched out in parallel. The measurement is made by sliding the mass from the root to the tip of the hairs (R→T) and vice versa (T→R).

[3] = coefficient of friction of the hair (smoothness), bleached hair, 1% in THF; settings: for coefficient of friction of the hair, R → T: root to tip; for coefficient of friction of the hair, T → R: tip to root
Experimental: as §1, §2

Row | Compound | I.W.L. 20 H (%) ([1]; 2% in THF) | coefficient of friction of the hair, R → T ([2]; non-rinsed) | coefficient of friction of the hair, T → R ([2]; non-rinsed) | coefficient of friction of the hair, R → T ([2]; rinsed) | coefficient of friction of the hair, T → R ([2]; rinsed) | coefficient of friction of the hair, R → T ([3]; non-rinsed) | coefficient of friction of the hair, T → R ([3]; non-rinsed) | coefficient of friction of the hair, R → T ([3]; rinsed) | coefficient of friction of the hair, T → R ([3]; rinsed) | I.W.L. 20 H (%) ([1]; 1% in THF) | coefficient of friction (result in words) ([2]; summary of Table 1, neutral and bleached hair) | I.W.L. 20 H (%) ([1]; 1.5% in THF)
1 | CCCCCCCCCCCCCCC(O)C(=O)NC(CO)C(O)C(O)CCCCCCCCCCCCCC (racemic) [Example 2, 2-N-hydroxyhexadecanoylaminooctadecane-1,3,4-triol(4 isomers)] | -31 ± 2 | – | – | – | – | – | – | – | – | – | – | –
2 | CCCCCCCCCCCCCCCC(=O)N[C@@H](CO)[C@H](O)[C@H](O)CCCCCCCCCCCCCC [Compound A, reference compound] | – | 0.000 | 0.000 | 0.125 ± 0.004 | 0.214 ± 0.004 | 0.000 | 0.000 | 0.191 ± 0.004 | 0.264 ± 0.012 | 0 ± 2 | – | –
3 | CCCCCCCCCCCCCCCC(=O)NC(CO)C(O)C(O)CCCCCCCCCCCCCC (stereo not drawn) [Example 4, 2-N-hexadecanoylaminooctadecane-1,3,4-triol (8 isomers)] | – | 0.089 ± 0.003 | 0.143 ± 0.003 | 0.095 ± 0.004 | 0.147 ± 0.004 | 0.009 ± 0.006 | 0.147 ± 0.006 | 0.085 ± 0.002 | 0.155 ± 0.004 | -9 ± 2 | marked decrease in the coefficient of friction | -15 ± 2
